Measurements reported in paper PMC6711031, “Discovery of new butyrylcholinesterase inhibitors via structure-based virtual screening” (Journal of Enzyme Inhibition and Medicinal Chemistry, 2019).
Read-outs that look alike come from different tables or passages of the source.

Biological target: T1, BChE from equine serum (Equus caballus, UniProt P81908)
T1 construct: BChE from equine serum (Sigma); purchased Sigma; host or cells: equine serum
Assay: biochemical
Conditions: eqBChE 0.22 U/mL, Tris-HCl pH 8.0, 20 min preincubation at 37 °C, butyrylthiocholine iodide 0.5 mM, read at 412 nm
Protocol: Selected hits were obtained from NCI and they were provided as dry powders in variable quantities (5–10 mg). […] Subsequently, they were diluted to the required concentrations with Tris buffer pH 8.0 for the assay. Enzymatic inhibition assays were performed on BChE from equine serum (Sigma), according to the spectrophotometric Ellman's method. The experiment was performed in 48-well plates in a final volume of 100 µL. Each well contained 0.22 U/mL eqBChE dissolved in Tris–HCl buffer, pH 8.0. They were preincubated for 20 min at different compound concentrations at 37 °C. Then 0.5 mM butyrylthiocholine iodide (Sigma) and 0.35 mM 5,5′-dithiobis -2-nitrobenzoico (DTNB; Sigma) were added. Colour development was measured spectrophotometrically at 412 nm using microplate reader (BioTek ELx800) at a rate of one measurement per minute over 15 min period. […] All samples were assayed in at least duplicate measurements. In general, the amount of DMSO was kept below 1% in the assay. IC50 values were determined graphically from inhibition curves using Graph Pad prism version 6, Graph Pad Software, Inc..

T1 sequence (P81908 whole entry): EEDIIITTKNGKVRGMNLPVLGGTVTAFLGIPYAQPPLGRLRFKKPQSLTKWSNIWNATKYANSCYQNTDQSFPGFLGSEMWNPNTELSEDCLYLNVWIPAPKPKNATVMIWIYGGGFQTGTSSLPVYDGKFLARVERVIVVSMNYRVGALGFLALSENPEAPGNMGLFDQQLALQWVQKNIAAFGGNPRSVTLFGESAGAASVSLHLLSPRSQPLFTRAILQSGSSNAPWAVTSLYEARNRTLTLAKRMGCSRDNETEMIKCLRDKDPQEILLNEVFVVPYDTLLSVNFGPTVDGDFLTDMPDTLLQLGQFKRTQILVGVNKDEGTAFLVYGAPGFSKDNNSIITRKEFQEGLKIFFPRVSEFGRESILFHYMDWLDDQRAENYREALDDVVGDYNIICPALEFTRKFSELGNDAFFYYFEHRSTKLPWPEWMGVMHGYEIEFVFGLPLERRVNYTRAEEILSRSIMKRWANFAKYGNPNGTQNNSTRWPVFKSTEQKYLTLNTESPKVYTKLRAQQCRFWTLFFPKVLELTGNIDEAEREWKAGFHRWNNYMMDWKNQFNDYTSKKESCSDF

| SMILES | IC50 (read-out: IC50 value) | IC50 (IC50 value) |
| --- | --- | --- |
| O=C1CC2COc3ccc(OCCN4CCCC4)cc3C2=NN1c1ccccc1 (stereo not drawn) [Compound 4, 2-phenyl-9–(2-(pyrrolidin-1-yl)ethoxy)-4a,5-dihydro-2H-chromeno[4,3-c]pyridazin-3(4H)-one] | 8.3 ± 0.07 µM | – |
| OC(c1ccccc1)C(NCCNCc1ccccc1)c1ccccc1 (stereo not drawn) [Compound 12, 2-[2-(benzylamino)ethylamino]-1,2-diphenylethanol] | 22.2 ± 0.12 µM | – |
| NCCC1CCc2[nH]c3ccccc3c2C1 (stereo not drawn) [Compound 26, 2–(2,3,4,9-tetrahydro-1H-carbazol-3-yl)ethanamine] | – | 39.7 ± 0.16 µM |
